Several values for one entry are separate records, joined by “and”; a condition that tells them apart may be missing. Equal values may be shown once. Read-outs that look alike come from different tables or passages of the source. Square brackets hold non-standard residues; d marks the D form. Peptide text beside a SMILES is read from it. dPhe(F5) = N[C@H](Cc1c(F)c(F)c(F)c(F)c1F)C(=O)O
Key:
[1] = molecular target: T1, hGRP-receptor (Homo sapiens, UniProt P30550); assay: Whole cell radioligand binding, hGRP-receptor transfected Balb 3T3 cells; conditions: b34 values for receptors expressed in Balb 3T3 cells
[2] = molecular target: T1, hGRP-receptor; assay: Whole cell radioligand binding, HuTu-80 cells
[3] = molecular target: T2, hNMB-receptor (Homo sapiens, UniProt P28336); assay: Whole cell radioligand binding, hNMB-receptor transfected Balb 3T3 cells; conditions: for IC50: IC50 hNMB-R Balb-3T3, hNMB-receptor transfected Balb 3T3 cells, 125I-[D-Tyr0]NMB, 1 h, 22°C, mean ± S.E.
[4] = molecular target: T2, hNMB-receptor; assay: Whole cell radioligand binding, hNMB-receptor transfected NCI-H1299 cells
[5] = molecular target: T3, hBRS-3 receptor (Homo sapiens, UniProt P32247); assay: Whole cell radioligand binding, hBRS-3 transfected Balb 3T3 cells
T3 sequence (P32247 1-399): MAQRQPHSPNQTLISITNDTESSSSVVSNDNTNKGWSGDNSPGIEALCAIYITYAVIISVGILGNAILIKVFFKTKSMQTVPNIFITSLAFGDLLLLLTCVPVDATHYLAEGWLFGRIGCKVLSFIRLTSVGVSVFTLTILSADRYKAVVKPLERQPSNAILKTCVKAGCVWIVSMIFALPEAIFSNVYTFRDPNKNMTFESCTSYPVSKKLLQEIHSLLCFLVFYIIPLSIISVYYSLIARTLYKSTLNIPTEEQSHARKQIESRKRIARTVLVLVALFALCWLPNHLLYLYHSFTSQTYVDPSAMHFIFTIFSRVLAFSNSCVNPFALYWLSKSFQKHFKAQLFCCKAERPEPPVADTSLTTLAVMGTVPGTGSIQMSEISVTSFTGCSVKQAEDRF

[6] = molecular target: T1, hGRP-receptor; assay: [3H]inositol phosphate generation, hGRP-receptor transfected Balb 3T3 cells; type: cell-based; conditions: for [3H]IP hGRPR-R-Balb-3T3 Ag/Antag: agonist/antagonist classification, up to 10 μM
[7] = molecular target: T1, hGRP-receptor; assay: [3H]inositol phosphate generation, HuTu-80 cells; type: cell-based; conditions: for [3H]IP HuTu-80 (hGRP-R) Ag/Antag: agonist/antagonist classification, up to 10 μM
[8] = molecular target: T2, hNMB-receptor; assay: cell-based; conditions: for [3H]IP NCI-H1299 (hNMB-R) Ag/Antag: agonist/antagonist classification, up to 10 μM
[9] = molecular target: T2, hNMB-receptor; type: cell-based; conditions: for [3H]IP hNMB-R-Balb-3T3 Ag/Antag: agonist/antagonist classification, up to 10 μM; for agonist activity at hNMB-receptor: concentrations up to 10 μM, hNMB-receptor transfected Balb 3T3 or NCI-H1299 cells
[10] = molecular target: T2, hNMB-receptor; conditions: cited from earlier work
[11] = test system: hGRP-receptors; conditions: cited from earlier work

T1 sequence (P30550 whole entry): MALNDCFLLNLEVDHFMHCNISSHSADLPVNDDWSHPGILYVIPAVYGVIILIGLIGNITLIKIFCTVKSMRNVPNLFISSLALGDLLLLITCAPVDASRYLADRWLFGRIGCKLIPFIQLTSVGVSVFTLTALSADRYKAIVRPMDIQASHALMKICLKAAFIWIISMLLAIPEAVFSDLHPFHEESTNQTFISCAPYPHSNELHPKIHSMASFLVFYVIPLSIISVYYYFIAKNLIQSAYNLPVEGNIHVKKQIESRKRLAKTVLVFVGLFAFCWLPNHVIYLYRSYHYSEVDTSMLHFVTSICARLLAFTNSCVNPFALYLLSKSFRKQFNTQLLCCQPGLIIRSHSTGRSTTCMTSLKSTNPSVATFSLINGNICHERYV
T2 sequence (P28336 whole entry): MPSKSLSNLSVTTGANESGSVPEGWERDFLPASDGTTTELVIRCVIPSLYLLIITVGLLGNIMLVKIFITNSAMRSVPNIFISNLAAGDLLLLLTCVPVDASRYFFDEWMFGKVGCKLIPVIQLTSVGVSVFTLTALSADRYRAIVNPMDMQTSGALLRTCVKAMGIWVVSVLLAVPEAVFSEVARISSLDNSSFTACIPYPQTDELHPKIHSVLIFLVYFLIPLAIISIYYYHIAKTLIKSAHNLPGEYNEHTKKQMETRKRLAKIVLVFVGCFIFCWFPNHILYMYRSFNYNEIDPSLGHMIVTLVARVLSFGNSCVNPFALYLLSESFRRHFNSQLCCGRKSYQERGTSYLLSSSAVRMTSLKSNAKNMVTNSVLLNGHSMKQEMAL

[3H]IP hGRPR-R-Balb-3T3 Ag/Antag [6] | [3H]IP HuTu-80 (hGRP-R) Ag/Antag [7] | [3H]IP hNMB-R-Balb-3T3 Ag/Antag [9] | agonist activity at hNMB-receptor [9] | [3H]IP NCI-H1299 (hNMB-R) Ag/Antag [8] | Structure (SMILES) | selectivity for hGRP-receptor over hNMB-receptor (binding affinities) [1] | IC50 [2] [nM] | IC50 [3] [nM] | IC50 [4] [nM] | IC50 [5] [nM] | IC50 [6] [nM] | IC50 [7] [nM] | IC50 [8] [nM] | also measured
 |  |  |  |  | COC(=O)[C@H](CC(C)C)NC(=O)[C@H](Cc1c[nH]cn1)NC(=O)[C@@H](C)NC(=O)[C@@H](NC(=O)[C@H](C)NC(=O)[C@H](Cc1c[nH]c2ccccc12)NC(=O)[C@H](CCC(N)=O)NC(=O)[C@H](N)Cc1c(F)c(F)c(F)c(F)c1F)C(C)C [Peptide 18, [D-F-5, Phe^6, D-Ala^11]Bn(6-13)Metyl ester (ME)] (H-[dPhe(F5)]QWAV[dA]HL-OMe) | > 11,000 fold and > 10,000 fold | 0.12 ± 0.01 | > 10000 | > 10000 | > 10000 | 3.6 ± 0.2 | 4.2 ± 0.9 |  | 
 |  |  |  |  | COC(=O)[C@H](CC(C)C)NC(=O)[C@H](Cc1c[nH]cn1)NC(=O)CNC(=O)[C@@H](NC(=O)[C@H](C)NC(=O)[C@H](Cc1c[nH]c2ccccc12)NC(=O)[C@H](CCC(N)=O)NC(=O)[C@H](N)Cc1ccccc1)C(C)C [Peptide 17, [D-Phe^6]Bn-(6-13)Methyl ester (ME)] | > 10,000 fold | 3.98 ± 0.8 | > 10000 | > 10000 | 5290 ± 1990 | 15.5 ± 1 | 10.9 ± 1.5 | > 10000 | 
No act | Antag | Antag | did not have agonist activity | Antag | CC(Cc1c[nH]c2ccccc12)(NC(=O)Nc1ccc([N+](=O)[O-])cc1)C(=O)NCC1(c2ccccn2)CCCCC1 (centres unmarked) [Peptide 34, 3-(1H-Indol-3-yl)-2-methyl-2-[3(4-nitro-phenyl)-ureido]-N-(1-pyridin-2-yl-cyclohexylmethyl)-propionamide, reference compound] |  | 1740 ± 105 | 0.51 ± 0.02 | 0.25 ± 0.02 | > 10000 | > 3000 | 1780 ± 57 | 24.5 ± 1.2 | selectivity for hNMB-receptor over hGRP-receptor (binding affinities) ([3]; listed as PD168368): 7,000 fold; hGRPR Ag/Antag ([7]; Table 5 species comparison, human values of this study (HuTu-80)): Antag; selectivity for hNMB-receptor over hGRP-receptor based on potency for inhibiting agonist-stimulated [3H]IP [9]: 33 to 100 fold; hNMBR Ag/Antag ([8]; Table 5 species comparison, human values of this study (NCI-H1299)): Antag; hNMB- or rNMB-receptor selectivity in other studies [10]: 40 fold; IC50 ([10]; read-out: IC50 for hNMB-receptors, other studies on human cells): 15 nM
 |  |  |  |  | CCOC(=O)[C@H](CC(C)C)NC(=O)[C@H](Cc1c[nH]cn1)NC(=O)CNC(=O)[C@@H](NC(=O)[C@H](C)NC(=O)[C@H](Cc1c[nH]c2ccccc12)NC(=O)[C@H](CCC(N)=O)NC(=O)[C@H](N)Cc1ccccc1)C(C)C [Peptide 20, [D-Phe^6]Bn-(6-13)Ethyl ester] | > 10,000 fold | 0.14 ± 0.03 | > 10000 | > 10000 | 5300 ± 1400 | 2 ± 0.3 | 1.4 ± 0.8 |  | 
Antag | Antag | Antag | did not have agonist activity | Antag | COc1ccc(C2(CNC(=O)C(C)(Cc3c[nH]c4ccccc34)NC(=O)Nc3ccc([N+](=O)[O-])cc3)CCCCC2)nc1 (centres unmarked) [Peptide 33, 3-(1H-Indol-3-yl)-N-[1-(5-methoxy-pyridin-2-yl)-cyclohexylmethyl]-2-methyl-2-[3-(4-nitro-phenyl)-ureido]-propionamide, reference compound] |  | 170 ± 11 |  |  | > 10000 |  | 275 ± 13 |  | affinity for hGRP-receptors in a second study [11]: 20 to 30 nM; Ki ([11]; read-out: Ki for hGRP-receptors in a previous study): 1 nM
